Assay results from patent publication US20240091169A1, “POL[…] FOR TREATING INFLAMMATORY DISEASES” (UNIVERSITY OF SOUTH CAROLINA, priority 2022, published 2024).

Test system: BMDMs cultured with C26 CM
Test: Macrophage polarization of BMDMs cultured with C26 CM (flow cytometry)
Format: cell-based, C57BL/6 mice
Settings: 48 hr, PA vs VEH
Description: Bone marrow-derived macrophages (BMDMs) were isolated from healthy 10-14-week-old C57BL/6 male mice. Briefly, mice were euthanized by isoflurane overdose. Femurs were cleared of muscle and debris. The epiphyses of the femurs were cut and placed knee-down and spun down in a 1.5 mL tube. Bone marrow was collected and resuspended in complete DMEM (cDMEM; 10% FBS, 1% penicillin/streptomycin) and passed through two 100 μm strainers. Cells were plated on an untreated 10 cm dish in cDMEM and allowed to incubate at 37° C. for 4 hr. Adherent/mature monocytes and dendritic cells were discarded, while floating/immature monocytes were collected. Cells were subjected to RBC lysis and resuspended in bone marrow maintenance media (BMMM; 20% L929-conditioned media in cDMEM). Cells were then plated on surface-treated 6-well plates at a 250 k cells/well seeding density. On day 3, fresh BMMM was added. On day 5, media was aspirated and fresh BMMM was added. For M2 macrophage polarization experiments, 6-day mature macrophages were given either cDMEM+VEH, M2 media (cDMEM with 10 ng/mL IL-4)+VEH, or M2 media+1 μM PA. Cells were incubated for 24 hr. For C26 colon tumor conditioned media (C26 CM) experiments, 6-day mature macrophages were given either serum-free media (SFM)+VEH, 33% C26-conditioned media (C26 CM)+VEH, or 33% C26 CM+1, 2.5, or 5 μM PA. Cells were incubated for 48 hr. After incubation with these different treatments, cells were washed twice with PBS and incubated with 5 mM EDTA PBS at 4° C. for 20 min. Cells were then gently scraped and transferred into flow tubes, spun at 1600 rpm at 4° C. for 5 min, and washed in PBS before antibody staining. Cells were stained and analyzed for macrophages via flow cytometry as described above with the addition of analyzing macrophage phenotypes. From the CD11b^+CD68^+ macrophage population, macrophage phenotypes were determined based on CD206 and CD11c expression. CD206^−CD11c^− cells were identified as M0 macrophages; CD206^−CD11c^+ as M1 macrophages; CD206^+CD11c^− cells as M2 macrophages; CD206^+CD11c^+ as M1-M2 transitional macrophages. All cells were measured using a FACS Aria II (BD) and analyzed using FlowJo (BD Biosciences). Three independent experiments were carried out for each in vitro assessment.

**Q.** Which results are given for `C=CC(O)C#CC#CC/C=C\CCCCCCC` (stereo in doubt) [PA, 3(R)-(9Z)-heptadeca-1,9-dien-4,6-diyn-3-ol]?
**A.** relative abundance of M0 macrophages: No significant differences; relative abundance of M1-M2 macrophages: No significant differences; relative abundance of M1 macrophages: No significant differences; relative abundance of pro-tumoral M2 macrophages (p≤0.05): significantly reduced
